± gives the expanded uncertainty stated by the source.

A short description of this series: activity coefficient (dimensionless); of the first substance listed, at infinite dilution; xn = mol fraction of the nth substance listed. As to conditions: Liquid, Chromatography, x1 = 0.

Take `C=CCCCCC` [1-heptene] + CCCC[P+](C)(CCCC)CCCC.COS(=O)(=O)[O-]: the activity coefficient was 8.2 ± 0.6 (308.15 K), 8 ± 0.5 (318.15 K) and 7.1 ± 0.5 (328.15 K).
Turning to `C#CCCCC` [1-hexyne] + CCCC[P+](C)(CCCC)CCCC.COS(=O)(=O)[O-], the activity coefficient by setting is: (308.15 K) 1.8 ± 0.1; (318.15 K) 1.7 ± 0.1.
Turning to `c1ccccc1` [benzene] + CCCC[P+](C)(CCCC)CCCC.COS(=O)(=O)[O-], the activity coefficient worked out at 1 ± 0.1 (308.15 K), 1 ± 0.1 (318.15 K) and 0.9 ± 0.1 (328.15 K).
As to `C1CCCCCC1` [cycloheptane] + CCCC[P+](C)(CCCC)CCCC.COS(=O)(=O)[O-], the activity coefficient is 6.5 ± 0.4 (308.15 K), 6.4 ± 0.4 (318.15 K) and 5.3 ± 0.4 (328.15 K).
For `C1CCCCC1` [cyclohexane] + CCCC[P+](C)(CCCC)CCCC.COS(=O)(=O)[O-] the same measures were 5.5 ± 0.4, 5.4 ± 0.4 and 4.6 ± 0.3.
Take `C1CCCC1` [cyclopentane] + CCCC[P+](C)(CCCC)CCCC.COS(=O)(=O)[O-]: the activity coefficient (308.15 K) amounted to 4.5 ± 0.3, the activity coefficient (318.15 K) was 4.3 ± 0.3 and the activity coefficient (328.15 K) worked out at 3.5 ± 0.2.
As to `CCCCCCC` [heptane] + CCCC[P+](C)(CCCC)CCCC.COS(=O)(=O)[O-], the activity coefficient stood at 13.4 ± 0.9 (308.15 K), 12.2 ± 0.8 (318.15 K) and 10.7 ± 0.7 (328.15 K).
For `C=CCCCC` [hex-1-ene] + CCCC[P+](C)(CCCC)CCCC.COS(=O)(=O)[O-], in that order: 6.4 ± 0.4, 6 ± 0.4 and 5.3 ± 0.4.
For `CCCCCC` [hexane] + CCCC[P+](C)(CCCC)CCCC.COS(=O)(=O)[O-], in that order: 10.3 ± 0.7, 9.5 ± 0.7 and 8.4 ± 0.6.
With `C=CCCCCCC` [oct-1-ene] + CCCC[P+](C)(CCCC)CCCC.COS(=O)(=O)[O-], the activity coefficient reads like this: (308.15 K) 10.1 ± 0.7; (318.15 K) 10 ± 0.7; (328.15 K) 8.9 ± 0.6.
For `CCCCCCCC` [octane] + CCCC[P+](C)(CCCC)CCCC.COS(=O)(=O)[O-] the same measures were 17.3 ± 1.2, 15.9 ± 1.1 and 13.8 ± 0.9.
For `CCCCC` [pentane] + CCCC[P+](C)(CCCC)CCCC.COS(=O)(=O)[O-], in that order: 8.1 ± 0.6, 7.7 ± 0.5 and 6.7 ± 0.5.

The values are drawn from the NIST ThermoML archive (doi:10.1016/j.fluid.2006.03.002).
